# According to EP2923697B1, “Extract and novel isolated compound from Aspergillus terreus for treatment of mouth microbial infections” (King Saud University, priority 2014, dated 2015):
# “And” between values parts separate entries of the source, which are not always exact repeats. Equal entries are not always repeated.
# Tests used:
# [1] = tested on: Lactobacillus acidophilus; experiment: In-vitro activity in combination with Coe-Comfort tissue conditioner, CFU count; assay type: cell-based; details: for concentration giving total growth inhibition: in combination with Coe-comfort tissue conditioner; for No. colony-forming units (CFU): mixed with Coe-Comfort
# Pseudomonas aeruginosa [2] = experiment: MIC determination, micro-dilution method; assay type: cell-based; details: read-out: Minimum Inhibitory Concentration
# From the text: (§1) Mouth microbial representatives including unicellular fungi; Candida albicans (RCMB 05382), Candida glabrata (RCMBA 05386), Candida parapsilosis (RCMBA 06002), Candida tropicalis (RCMB 05384), Gram-positive bacteria; Lactobacillus acidophilus (RCMBA 4267), Streptococcus gordonii (RCMBA 2004), Streptococcus mutans (RCMBA 4131), and Gram-negative bacteria; Pseudomonas aeruginosa (RCMBA 1002) were obtained from the Regional Center for Mycology and Biotechnology (RCMB), Al-Azhar University, Cairo, Egypt, as test organisms.
# (§2) The minimum inhibitory concentration (MIC) was determined by micro-dilution method using serially diluted (2 folds) extract and isolated compound. MIC of the extract was determined by dilution of extract and isolated compound of concentrations of 0.0-1000 µg/ml. Equal volume of each extract and nutrient broth were mixed in a test tube. Specifically 0.1 ml of standardized inoculum (1-2 X 10^7 CFU/ml) was added in each tube. The tubes were incubated at 37°C for 24-48 h. Two control tubes containing the growth medium, saline and the inoculum were maintained for each test batch. The lowest concentration (highest dilution) of the extract that produced no visible microbial growth (no turbidity) when compared with the control tubes were regarded as MIC.
# Streptococcus gordonii [3] = experiment: MIC determination, micro-dilution method; assay type: cell-based; details: read-out: Minimum Inhibitory Concentration
# From the text: as §1, §2
# Streptococcus mutans [4] = experiment: MIC determination, micro-dilution method; assay type: cell-based; details: read-out: Minimum Inhibitory Concentration
# From the text: as §1, §2
# [5] = tested on: Lactobacillus acidophilus; experiment: MIC determination, micro-dilution method; assay type: cell-based; details: for MIC: read-out: Minimum Inhibitory Concentration
# From the text: as §1, §2
# Pseudomonas aeruginosa [6] = experiment: Antimicrobial activity, well diffusion method; assay type: cell-based; details: 5mg/ml of sample around well (6 mm), mean ± Standard deviation
# From the text: (§3) Mouth microbial representatives including unicellular fungi; Candida albicans (RCMB 05382), Candida glabrata (RCMBA 05386), Candida parapsilosis (RCMBA 06002), Candida tropicalis (RCMB 05384), Gram-positive bacteria; Lactobacillus acidophilus (RCMBA 4267), Streptococcus gordonii (RCMBA 2004), Streptococcus mutans (RCMBA 4131), and Gram-negative bacteria; Pseudomonas aeruginosa (RCMBA 1002) were obtained from the Regional Center for Mycology and Biotechnology (RCMB), Al-Azhar University, Cairo, Egypt, as test organisms. Antimicrobial activity was determined by the well diffusion method. Petri plates contained 20 ml of Nutrient (for bacteria) or Malt extract (for fungi). Agar medium were seeded with 1-3 day cultures of microbial inoculums (1-2 X 10^7 CFU/ml). […] The assessment of antimicrobial activity was based on measurement of the diameter of the inhibition zone formed around the well.
# Streptococcus gordonii [7] = experiment: Antimicrobial activity, well diffusion method; assay type: cell-based; details: 5mg/ml of sample around well (6 mm), mean ± Standard deviation
# From the text: as §3
# Streptococcus mutans [8] = experiment: Antimicrobial activity, well diffusion method; assay type: cell-based; details: 5mg/ml of sample around well (6 mm), mean ± Standard deviation
# From the text: as §3
# [9] = tested on: Lactobacillus acidophilus; experiment: Antimicrobial activity, well diffusion method; assay type: cell-based; details: 5mg/ml of sample around well (6 mm), mean ± Standard deviation
# From the text: as §3
# Streptococcus gordonii [10] = experiment: In-vitro activity in combination with Coe-Comfort tissue conditioner; assay type: cell-based
# S. mutans = experiment: as above; assay type: cell-based, Streptococcus mutans
# [11] = Sub-chronic toxicity, liver and kidney function; assay type: in vivo, Male Wister rats; details: rats; oral daily for 15 days; extract 500 mg/kg, isolated compound 50 mg/kg; serum 6 hr after the last dose
# Procedure: Male Wister rats (150-180 g) were divided into 3 equal groups each of 10 rats. Rats of the 1st group received the vehicle in a dose of 5 mL/kg and left as normal control. Rats of the 2nd and 3rd groups were administered the ethanolic extract of the investigated fungi (500 mg/kg) and the isolated compound (50 mg/kg). All medications were administered orally daily for 15 consecutive days. Animals were maintained under identical conditions with food and water ad libitum for the entire period with close observation. At the end of the experimental period, blood samples were collected from the orbital plexus of rats, 6 hr after the last dose. Samples were left to clot at room temperature for 20 min. The obtained sera were collected and used to determine the activity of AST and ALT. Levels of urea and creatinine were also estimated.
# Candida tropicalis [12] = experiment: MIC determination, micro-dilution method; assay type: cell-based
# From the text: as §1, §2
# Candida albicans [13] = experiment: MIC determination, micro-dilution method; assay type: cell-based; details: read-out: Minimum Inhibitory Concentration
# From the text: as §1, §2
# Candida parapsilosis [14] = experiment: MIC determination, micro-dilution method; assay type: cell-based; details: Lodderomyces parapsilosis, read-out: Minimum Inhibitory Concentration
# From the text: as §1, §2
# Candida glabrata [15] = experiment: MIC determination, micro-dilution method; assay type: cell-based; details: Candida glabrata
# From the text: as §1, §2
# Candida albicans [16] = experiment: In-vitro activity in combination with Coe-Comfort tissue conditioner, CFU count; assay type: cell-based; details: for No. colony-forming units (CPU): Candida albicans, mixed with Coe-Comfort
# Procedure: The Coe-Comfort tissue conditioner was mixed according to the proportions indicated by the manufacturers. In detail, Coe-comfort™ tissue conditioner is formed by dispensing 5 ml of Coe-comfort liquid into a disposable mixing cup. The red measure level is filled with about 6 g of Coe-comfort powder and is then slowly added to the liquid. The obtained mixture is blended for 30 seconds and setted aside for approximately one minute until it flows sluggishly from a spatula. Using less liquid gives a thicker, faster setting mix and vice versa. […] The extract and isolated compound/conditioner mixture was homogenized in a sterile glass beaker for 30 seconds. Immediately afterwards, the conditioning powder was added and mixed for 40 seconds and then poured onto a Petri plate. Once the mixture solidified, the surface was covered with 4 ml of Sabouraud agar, and after 30 minutes, inoculated with 20 µl of an appropriate dilution of Candida. The plates were incubated at 37°C for 24 hours and then the CFUs were counted. The experiment was performed in triplicate. For the conditioner Coe-Comfort, the control was unmodified conditioner.
# Candida tropicalis [17] = experiment: Antimicrobial activity, well diffusion method; assay type: cell-based; details: 5mg/ml of sample around well (6 mm), mean ± Standard deviation
# From the text: as §3
# Candida albicans [18] = experiment: Antimicrobial activity, well diffusion method; assay type: cell-based; details: 5mg/ml of sample around well (6 mm), mean ± Standard deviation
# From the text: as §3
# Candida parapsilosis [19] = experiment: Antimicrobial activity, well diffusion method; assay type: cell-based; details: 5mg/ml of sample around well (6 mm), mean ± Standard deviation
# From the text: as §3
# Candida glabrata [20] = experiment: Antimicrobial activity, well diffusion method; assay type: cell-based; details: 5mg/ml of sample around well (6 mm), mean ± Standard deviation
# From the text: as §3
smiles,measurement,setting,value
"[H]/N=C(\N/C(=N/[H])NCCCCCCNC(=N)NC(=N)Nc1ccc(Cl)cc1)Nc1ccc(Cl)cc1 [Chlorhexidine, reference compound]",concentration giving total growth inhibition,[1],15.63 µg/mL
same,No. colony-forming units (CFU),[1]; concentration 000.24 µg/ml,6.4 x 10^5
same,No. colony-forming units (CFU),[1]; concentration 000.49 µg/ml,2.3 x 10^5
same,No. colony-forming units (CFU),[1]; concentration 000.98 µg/ml,3.1 x 10^4
same,No. colony-forming units (CFU),[1]; concentration 001.95 µg/ml,5.4 x 10^3
same,No. colony-forming units (CFU),[1]; concentration 003.90 µg/ml,1.9 x 10^3
same,No. colony-forming units (CFU),[1]; concentration 007.81 µg/ml,7.9 x 10^2
same,No. colony-forming units (CFU),[1]; concentration 015.63 µg/ml,00.00
same,No. colony-forming units (CFU),[1]; concentration 031.25 µg/ml,00.00
same,No. colony-forming units (CFU),[1]; concentration 062.50 µg/ml,00.00
same,MIC,Pseudomonas aeruginosa [2],3.9 µg/mL
same,MIC,Streptococcus gordonii [3],0.98 µg/mL
same,MIC,Streptococcus mutans [4],0.49 µg/mL
same,MIC,[5],0.06 µg/mL
same,Diameter of inhibition zone,Pseudomonas aeruginosa [6],20.1 ± 0.19 mm
same,Diameter of inhibition zone,Streptococcus gordonii [7],22.1± 0.51 mm
same,Diameter of inhibition zone,Streptococcus mutans [8],23.5 ± 0.34 mm
same,Diameter of inhibition zone,[9],26.2± 0.42 mm
same,concentration giving total growth inhibition,Streptococcus gordonii [10],3.9 µg/mL
same,concentration giving total growth inhibition,S. mutans,15.63 µg/mL
"C/C=C(/C)C1CCC2C(C1)CC(C)C1C2C=C(C)C2C3CC(C=C(C)C)CC3C(O)CC21 (stereo not shown) [Isolated compound, 9-((Z)-but-2-en-2-yl)-2,3,3a,4,5,5a;5b,6,7,7a,8,9,10,11,11a,11b,13a,13b-octadecahydro-6,13-dimethyl-2-(2-methylprop-1-enyl)-1H-cyclopenta[a]chrysen-4-ol]",concentration giving total growth inhibition,[1],7.81 µg/mL
same,No. colony-forming units (CFU),[1]; concentration 000.24 µg/ml,8.2 x 10^5
same,No. colony-forming units (CFU),[1]; concentration 000.49 µg/ml,9.7 x 10^4
same,No. colony-forming units (CFU),[1]; concentration 000.98 µg/ml,4.8 x 10^4
same,No. colony-forming units (CFU),[1]; concentration 001.95 µg/ml,3.4 x 10^3
same,No. colony-forming units (CFU),[1]; concentration 003.90 µg/ml,4.1 x10^2
same,No. colony-forming units (CFU),[1]; concentration 007.81 µg/ml,00.00
same,No. colony-forming units (CFU),[1]; concentration 015.63 µg/ml,00.00
same,No. colony-forming units (CFU),[1]; concentration 031.25 µg/ml,00.00
same,No. colony-forming units (CFU),[1]; concentration 062.50 µg/ml,00.00
same,effect on the activity of alanine aminotransferase (ALT),[11],did not show any significant effect
same,effect on the activity of aspirate aminotransferase (AST),[11],did not show any significant effect
same,effect on the levels of blood urea,[11],did not show any significant effect
same,effect on the levels of serum creatinine,[11],did not show any significant effect
same,Minimum Inhibitory Concentration,Candida tropicalis [12],000.49 µg/mL
same,MIC,Candida tropicalis [12]; read-out: Minimum Inhibitory Concentration,0.49 µg/mL
same,MIC,Candida albicans [13],7.81 µg/mL
same,MIC,Pseudomonas aeruginosa [2],15.6 µg/mL
same,MIC,Candida parapsilosis [14],1.95 µg/mL
same,MIC,Streptococcus gordonii [3],3.9 µg/mL
same,MIC,Streptococcus mutans [4],0.98 µg/mL
same,Minimum Inhibitory Concentration,[5],000.24 µg/mL
same,MIC,[5],0.24 µg/mL
same,Minimum Inhibitory Concentration,Candida glabrata [15],000.00 µg/mL
same,concentration giving total growth inhibition,"Candida albicans [16]; C. albicans, in combination with Coe-comfort tissue conditioner",7.81 µg/mL
same,No. colony-forming units (CPU),Candida albicans [16]; concentration 000.24 µg/ml,9.1 x 10^4
same,No. colony-forming units (CPU),Candida albicans [16]; concentration 000.49 µg/ml,5.2 x 10^4
same,No. colony-forming units (CPU),Candida albicans [16]; concentration 000.98 µg/ml,6.3 x 10^3
same,No. colony-forming units (CPU),Candida albicans [16]; concentration 001.95 µg/ml,1.0 x 10^3
same,No. colony-forming units (CPU),Candida albicans [16]; concentration 003.90 µg/ml,2.3 x 10^2
same,No. colony-forming units (CPU),Candida albicans [16]; concentration 007.81 µg/ml,00.00
same,No. colony-forming units (CPU),Candida albicans [16]; concentration 015.63 µg/ml,00.00
same,No. colony-forming units (CPU),Candida albicans [16]; concentration 031.25 µg/ml,00.00
same,No. colony-forming units (CPU),Candida albicans [16]; concentration 062.50 µg/ml,00.00
same,Diameter of inhibition zone,Candida tropicalis [17],22.4 ± 0.58 mm
same,Diameter of inhibition zone,Candida albicans [18],19.3 ± 0.63 mm
same,Diameter of inhibition zone,Pseudomonas aeruginosa [6],18.2± 0.63 mm
same,Diameter of inhibition zone,Candida parapsilosis [19],21.3 ± 0.58 mm
same,Diameter of inhibition zone,Streptococcus gordonii [7],20.3 ± 0.72 mm
same,Diameter of inhibition zone,Streptococcus mutans [8],22.1± 0.72 mm
same,Diameter of inhibition zone,[9],23.9 ± 0.37 mm
same,Diameter of inhibition zone,Candida glabrata [20],00.0 mm
same,concentration giving total growth inhibition,Streptococcus gordonii [10],62.50 µg/mL and 62.5 µg/mL
same,concentration giving total growth inhibition,S. mutans,125 µg/mL
